{"source": "ChEMBL document CHEMBL1201862", "about": "“PubChem BioAssay data set” (2004)", "key": {"[1]": {"assay": "Luminescence Cell-Based Dose Retest to Confirm Inhibitors of Cancer Stem Cells. [Related pubchem assays (depositor defined):AID2717, AID2721]", "format": "functional", "conditions": "Homo sapiens"}, "[2]": {"target": "T1, Microphthalmia-associated transcription factor (Homo sapiens, UniProt O75030)", "T1 sequence (O75030 whole entry)": "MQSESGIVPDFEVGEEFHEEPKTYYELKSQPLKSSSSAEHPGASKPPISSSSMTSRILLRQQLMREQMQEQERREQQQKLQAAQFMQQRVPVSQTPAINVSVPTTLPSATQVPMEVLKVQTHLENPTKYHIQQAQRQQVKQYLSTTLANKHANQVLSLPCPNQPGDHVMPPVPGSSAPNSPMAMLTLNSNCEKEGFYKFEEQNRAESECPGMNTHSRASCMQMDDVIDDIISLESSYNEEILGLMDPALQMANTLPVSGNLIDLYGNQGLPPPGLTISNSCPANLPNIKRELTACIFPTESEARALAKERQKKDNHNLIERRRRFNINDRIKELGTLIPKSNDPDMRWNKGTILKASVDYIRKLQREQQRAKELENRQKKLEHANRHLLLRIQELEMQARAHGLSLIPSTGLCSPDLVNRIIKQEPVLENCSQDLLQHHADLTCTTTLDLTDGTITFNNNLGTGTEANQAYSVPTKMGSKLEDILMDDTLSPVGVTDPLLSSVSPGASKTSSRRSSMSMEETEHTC", "assay": "reducers of TRPM1 reporter luminescence, concentration series – cell-based, SK-MEL-5, cherry-picked, set 3, MITF inhibitor project, dose response (AID 493073)", "format": "functional"}, "[3]": {"target": "T2, Replicative DNA helicase DnaB (Mycobacterium tuberculosis, UniProt P9WMR3)", "T2 sequence (P9WMR3 whole entry)": "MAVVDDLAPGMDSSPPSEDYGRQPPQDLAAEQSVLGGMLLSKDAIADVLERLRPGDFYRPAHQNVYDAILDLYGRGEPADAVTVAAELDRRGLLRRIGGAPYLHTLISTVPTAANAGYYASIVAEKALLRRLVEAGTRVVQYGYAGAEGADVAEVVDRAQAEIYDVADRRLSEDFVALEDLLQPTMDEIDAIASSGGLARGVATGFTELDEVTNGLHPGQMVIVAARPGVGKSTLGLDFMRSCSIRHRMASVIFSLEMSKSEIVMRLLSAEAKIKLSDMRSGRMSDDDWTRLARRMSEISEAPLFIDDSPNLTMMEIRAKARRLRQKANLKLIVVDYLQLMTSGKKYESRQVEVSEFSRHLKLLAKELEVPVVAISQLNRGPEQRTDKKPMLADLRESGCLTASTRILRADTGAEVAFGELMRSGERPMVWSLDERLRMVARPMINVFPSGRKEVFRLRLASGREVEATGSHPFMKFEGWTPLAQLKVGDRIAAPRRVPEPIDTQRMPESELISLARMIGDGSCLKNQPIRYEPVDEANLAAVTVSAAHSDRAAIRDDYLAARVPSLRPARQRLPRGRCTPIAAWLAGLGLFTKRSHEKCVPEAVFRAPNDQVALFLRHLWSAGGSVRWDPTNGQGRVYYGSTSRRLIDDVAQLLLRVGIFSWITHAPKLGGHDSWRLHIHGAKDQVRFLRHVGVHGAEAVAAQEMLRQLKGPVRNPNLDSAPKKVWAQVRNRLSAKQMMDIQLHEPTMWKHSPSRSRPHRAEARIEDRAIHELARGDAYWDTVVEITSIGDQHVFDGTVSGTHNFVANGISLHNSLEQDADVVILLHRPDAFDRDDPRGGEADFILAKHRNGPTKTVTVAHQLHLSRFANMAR", "assay": "DnaB intein splicing inhibitors, dose response, biochemical, cell-free fluorescence (AID 449749)", "format": "functional"}, "[4]": {"target": "T3, Protein RecA (Mycobacterium tuberculosis, UniProt P9WHJ3)", "T3 sequence (P9WHJ3 whole entry)": "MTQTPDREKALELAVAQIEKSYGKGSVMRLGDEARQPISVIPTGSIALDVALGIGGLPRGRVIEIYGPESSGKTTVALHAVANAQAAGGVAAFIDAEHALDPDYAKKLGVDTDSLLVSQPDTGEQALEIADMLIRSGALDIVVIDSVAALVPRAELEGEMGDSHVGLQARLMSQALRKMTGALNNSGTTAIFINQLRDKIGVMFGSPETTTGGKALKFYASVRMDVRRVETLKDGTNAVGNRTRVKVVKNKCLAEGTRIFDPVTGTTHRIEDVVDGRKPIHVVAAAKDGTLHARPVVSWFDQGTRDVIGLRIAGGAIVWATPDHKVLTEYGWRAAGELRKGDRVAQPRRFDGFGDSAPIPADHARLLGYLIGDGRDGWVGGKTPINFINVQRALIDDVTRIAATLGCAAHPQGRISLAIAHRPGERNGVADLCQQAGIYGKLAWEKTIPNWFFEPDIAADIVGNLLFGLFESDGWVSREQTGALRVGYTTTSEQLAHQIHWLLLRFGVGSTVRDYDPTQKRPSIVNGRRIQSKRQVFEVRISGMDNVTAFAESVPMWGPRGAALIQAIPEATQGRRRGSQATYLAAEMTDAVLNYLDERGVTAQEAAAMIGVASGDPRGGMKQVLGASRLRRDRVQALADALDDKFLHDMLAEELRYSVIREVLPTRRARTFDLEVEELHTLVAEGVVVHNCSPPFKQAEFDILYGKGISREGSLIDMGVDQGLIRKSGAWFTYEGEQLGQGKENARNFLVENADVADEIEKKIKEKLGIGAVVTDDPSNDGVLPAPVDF", "assay": "Fluorescence Cell-Free Homogeneous Dose Retest to Identify Inhibitors of RecA-Intein Splicing Activity. [Related pubchem assays (depositor defined):AID2097, AID2223, AID489010, AID492950]", "format": "functional"}, "[5]": {"target": "Paired box protein Pax-8 (Homo sapiens, UniProt Q06710)", "sequence (Q06710 whole entry)": "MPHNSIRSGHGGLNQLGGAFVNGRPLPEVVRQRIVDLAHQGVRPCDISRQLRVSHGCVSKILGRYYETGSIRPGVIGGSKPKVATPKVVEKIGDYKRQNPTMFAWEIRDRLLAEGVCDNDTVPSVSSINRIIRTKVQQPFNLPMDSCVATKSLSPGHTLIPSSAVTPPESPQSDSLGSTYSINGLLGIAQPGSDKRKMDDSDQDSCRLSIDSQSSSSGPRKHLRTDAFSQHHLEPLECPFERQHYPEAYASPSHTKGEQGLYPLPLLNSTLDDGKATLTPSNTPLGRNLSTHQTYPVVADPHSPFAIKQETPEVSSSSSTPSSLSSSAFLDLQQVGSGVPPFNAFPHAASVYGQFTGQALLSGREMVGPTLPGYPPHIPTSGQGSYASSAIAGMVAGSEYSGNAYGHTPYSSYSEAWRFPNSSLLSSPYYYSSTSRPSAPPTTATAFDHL", "assay": "PAX8 transcriptional activity inhibition in RMG-I – RMG-I cells, luciferase, cherry-pick, dose response (AID 687027);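 also: luciferase reporter driven by Pax8 target thyroperoxidase promoter measured by SteadyGlo luminescence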", "format": "functional, cell-based"}, "[6]": {"system": "BJ", "assay": "BJ-TERT fibroblast viability loss – cell-based, RAS-independent, luminescence, dose response (AID 1933)", "format": "functional", "conditions": "Homo sapiens"}, "[7]": {"system": "BJ", "assay": "cells", "format": "functional, cell-based", "conditions": "Homo sapiens"}, "[8]": {"system": "BJ", "assay": "BJ-TERT-LT-ST fibroblast viability loss – cell-based, RAS-independent, luminescence, dose response (AID 1935);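 also: BJ fibroblasts immortalized with TERT plus LT and ST oncogenes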", "format": "functional", "conditions": "Homo sapiens"}, "[9]": {"assay": "DRD fibroblast viability loss – cell-based, non-viral oncogenic, luminescence, dose response (AID 1934)", "format": "functional", "conditions": "Homo sapiens"}, "[10]": {"system": "BJ", "assay": "growth inhibition of engineered Ras-driven BJ cells – cell-based, alamar blue fluorescence, cherrypicked samples, dose response (AID 2631)", "format": "functional", "conditions": "Homo sapiens"}, "[11]": {"target": "Ras and Rab interactor 1/Tyrosine-protein kinase ABL1 (Homo sapiens, UniProt P00519+Q13671)", "sequence (P00519 whole entry)": "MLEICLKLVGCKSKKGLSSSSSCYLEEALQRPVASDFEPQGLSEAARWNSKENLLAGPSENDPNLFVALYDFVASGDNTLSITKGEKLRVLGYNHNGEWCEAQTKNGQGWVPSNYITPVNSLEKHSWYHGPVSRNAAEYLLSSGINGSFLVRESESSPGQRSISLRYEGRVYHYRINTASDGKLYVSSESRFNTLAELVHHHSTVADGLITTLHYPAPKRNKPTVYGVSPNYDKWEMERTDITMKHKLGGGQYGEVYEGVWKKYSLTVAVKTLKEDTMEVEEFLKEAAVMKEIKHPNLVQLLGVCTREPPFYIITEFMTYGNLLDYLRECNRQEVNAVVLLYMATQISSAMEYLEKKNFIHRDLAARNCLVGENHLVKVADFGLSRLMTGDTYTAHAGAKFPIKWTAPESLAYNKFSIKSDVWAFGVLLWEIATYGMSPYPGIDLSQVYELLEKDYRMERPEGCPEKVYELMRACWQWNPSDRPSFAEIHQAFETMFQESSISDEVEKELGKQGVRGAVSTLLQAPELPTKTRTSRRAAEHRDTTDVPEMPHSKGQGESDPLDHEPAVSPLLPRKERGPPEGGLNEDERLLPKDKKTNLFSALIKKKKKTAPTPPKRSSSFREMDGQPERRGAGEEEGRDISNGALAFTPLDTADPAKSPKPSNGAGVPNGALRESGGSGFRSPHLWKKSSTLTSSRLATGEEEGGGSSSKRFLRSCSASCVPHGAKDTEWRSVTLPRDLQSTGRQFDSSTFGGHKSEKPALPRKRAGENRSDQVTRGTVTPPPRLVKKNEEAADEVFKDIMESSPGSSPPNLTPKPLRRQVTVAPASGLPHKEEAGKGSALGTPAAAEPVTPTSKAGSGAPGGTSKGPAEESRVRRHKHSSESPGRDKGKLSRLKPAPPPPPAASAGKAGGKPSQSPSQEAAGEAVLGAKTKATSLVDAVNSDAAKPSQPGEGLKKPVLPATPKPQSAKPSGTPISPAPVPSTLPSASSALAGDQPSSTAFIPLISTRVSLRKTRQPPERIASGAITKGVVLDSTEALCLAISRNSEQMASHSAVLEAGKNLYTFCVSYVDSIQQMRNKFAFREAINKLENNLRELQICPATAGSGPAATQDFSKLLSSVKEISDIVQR", "sequence (Q13671 whole entry)": "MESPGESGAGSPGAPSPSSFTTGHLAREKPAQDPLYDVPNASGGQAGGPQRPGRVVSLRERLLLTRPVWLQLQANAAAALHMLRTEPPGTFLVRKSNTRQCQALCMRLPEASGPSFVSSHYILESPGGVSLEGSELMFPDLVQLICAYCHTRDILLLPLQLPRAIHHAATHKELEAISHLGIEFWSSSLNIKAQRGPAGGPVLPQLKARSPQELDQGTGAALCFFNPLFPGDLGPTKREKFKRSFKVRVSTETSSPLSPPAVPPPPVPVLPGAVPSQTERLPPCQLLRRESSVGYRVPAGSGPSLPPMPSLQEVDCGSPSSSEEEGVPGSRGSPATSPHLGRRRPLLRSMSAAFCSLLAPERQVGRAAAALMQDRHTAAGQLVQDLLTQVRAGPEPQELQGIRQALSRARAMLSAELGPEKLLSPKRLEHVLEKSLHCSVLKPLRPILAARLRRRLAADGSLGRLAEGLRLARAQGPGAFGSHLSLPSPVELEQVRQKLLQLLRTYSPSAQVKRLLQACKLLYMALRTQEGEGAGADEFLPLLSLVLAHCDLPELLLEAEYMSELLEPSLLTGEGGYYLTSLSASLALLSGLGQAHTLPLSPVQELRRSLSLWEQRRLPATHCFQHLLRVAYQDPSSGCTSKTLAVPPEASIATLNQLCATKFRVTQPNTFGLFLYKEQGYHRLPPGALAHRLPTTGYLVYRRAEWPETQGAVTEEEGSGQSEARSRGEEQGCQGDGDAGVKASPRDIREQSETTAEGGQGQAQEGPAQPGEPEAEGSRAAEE", "format": "functional"}, "[12]": {"system": "H9c2", "assay": "cells", "format": "functional, cell-based", "conditions": "Rattus norvegicus, H9c2, Myocardium"}, "[13]": {"assay": "HEK-293T viability loss after treatment – luminescence, T-cell screen hits, cytotoxicity control for TCR NF-kB inhibitor project, dose response (AID 489026);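 also: cells exposed to compound about 14 hours before the viability readout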", "format": "functional, cell-based"}, "[14]": {"system": "Vero", "assay": "cells", "format": "functional, cell-based", "conditions": "Chlorocebus sabaeus"}, "[15]": {"system": "Vero", "assay": "cells", "format": "functional", "conditions": "Chlorocebus sabaeus"}, "[16]": {"assay": "intracellular Trypanosoma cruzi inhibitors in host cells – cell-based, plate reader, cherry-pick samples, set 3, dose response (AID 651818);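 also: compounds incubated with infected cells for about four days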", "format": "functional"}, "[17]": {"target": "Prothrombin (Homo sapiens, UniProt P00734)", "assay": "Thrombin 1536 HTS Dose Response Confirmation. [Related pubchem assays: 1046 (Thrombin 1536 HTS; hits were confirmed in this assay)]", "format": "functional"}}, "note": "The source made the active and inactive calls."}
{"smiles": "O=C(Nc1ccccc1)NN(C(=O)CCl)c1ccccc1", "values": [{"measurement": "AC50", "setting": "[1]", "result": "3.11 µM (active)"}, {"measurement": "AC50", "setting": "[2]", "result": "8.5 µM (active)"}, {"measurement": "AC50", "setting": "[3]", "result": "13.7 µM (active)"}, {"measurement": "EC50", "setting": "[4]", "result": "0.861 µM (active)"}, {"measurement": "AC50", "setting": "[5]", "result": "4.57 µM (active)"}]}
{"smiles": "COc1ccc(F)cc1CN1CCN(C(=O)CCC(=O)Nc2nnc(CC(C)C)s2)CC1", "values": [{"measurement": "EC50", "setting": "[6]", "result": "> 150 µM (not active)"}, {"measurement": "EC50", "setting": "[7]", "result": "> 150 µM (not active)"}, {"measurement": "EC50", "setting": "[8]", "result": "> 150 µM (inconclusive)"}, {"measurement": "EC50", "setting": "[9]", "result": "> 150 µM (inconclusive)"}, {"measurement": "EC50", "setting": "[10]", "result": "> 133 µM (inactive)"}]}
{"smiles": "COC(=O)c1ccc(CSc2nnc(-c3c[nH]c4ccccc34)n2C)o1", "values": [{"measurement": "IC50", "setting": "[11]", "result": "13.8 µM (inactive)"}]}
{"smiles": "O=C(COC(=O)c1ccc(F)c([N+](=O)[O-])c1)NC(=O)NCc1ccccc1", "values": [{"measurement": "AC50", "setting": "[2]", "result": "13.6 µM (active)"}]}
{"smiles": "Nc1cc[n+]([O-])cc1CCc1ccccc1", "values": [{"measurement": "IC50", "setting": "[11]", "result": "23.3 µM (inactive)"}]}
{"smiles": "NNC(=O)c1cc2ccccc2cc1O", "values": [{"measurement": "AC50", "setting": "[2]", "result": "24 µM (active)"}, {"measurement": "IC50", "setting": "[12]", "result": "> 79 µM (inactive)"}]}
{"smiles": "C[C@]12CC[C@H](O)C[C@H]1CC[C@@H]1[C@@H]2C[C@@H](O)[C@]2(C)[C@@H](C3=CC(=O)OC3)CC[C@]12O", "note": "[DIGOXIGENIN]", "values": [{"measurement": "AC50", "setting": "[1]", "result": "1.16 µM (active)"}, {"measurement": "IC50", "setting": "[13]", "result": "> 80 µM (inactive)"}, {"measurement": "IC50", "setting": "[14]", "result": "< 0.05 µM (active)"}, {"measurement": "CC50", "setting": "[15]", "result": "2.1 µM (active)"}, {"measurement": "AC50", "setting": "[5]", "result": "2.35 µM (active)"}]}
{"smiles": "O=[N+]([O-])c1cccc(/C(O)=C(/C([S-])=Nc2cccc3ccccc23)[n+]2ccccc2)c1", "values": [{"measurement": "IC50", "setting": "[14]", "result": "> 25 µM (active)"}]}
{"smiles": "C[C@H]1CN([C@@H](C)CO)C(=O)c2cccc(NC(=O)CCCCCC(=O)Nc3ccccc3N)c2O[C@H]1CN(C)S(=O)(=O)c1ccc(Cl)cc1", "values": [{"measurement": "AC50", "setting": "[16]", "result": "3.53 µM (active)"}]}
{"smiles": "CCOC(=O)c1c(C)n(C(=O)c2ccco2)c(=O)n1C(=O)c1ccco1", "values": [{"measurement": "IC50", "setting": "[17]", "result": "0.533 µM (active)"}, {"measurement": "IC50", "setting": "[11]", "result": "11 µM (inactive)"}]}
